Measurements: US8101653B2, “Therapeutic compositions” (BTG International Limited, priority 1997, dated 2012)

How the values were obtained:
[1] = liquid diet supplemented with 47% of its caloric content; cited from earlier work
[2] = tested on: liver cytosolic [NAD]/[NADH]; details: after feeding/administration; 1,3 butandiol decrease from 1500; cited from earlier work
[3] = tested on: primary hippocampal cultures; experiment: Effect of D-β-hydroxybutyrate on β-amyloid toxicity to hippocampal cells in vitro (microisland cultures); format: cell-based, Wistar; details: for neuronal cell number per microisland: increase from a mean of 30
Protocol: The serum free medium used from 0 to day 4 contained Neurobasal medium with B27 supplement diluted 50 fold (Life Technology, Gaithersburg, Md.) to which was added: 0.5 mM L-glutamine, 25 μM Na L-glutamate, 100 U/ml penicillin and 100 μg/ml streptomycin. After day 4, DMEM/F12 medium containing 5 μM insulin, 30 nM 1-thyroxine, 20 nM progesterone, 30 nM Na selenite 100 U/ml penicillin and 100 μg/ml streptomycin were used.
The primary hippocampal cultures were removed from Wistar embryos on day 18 and dispersed by gentle aggitation in a pipette. The suspension was centrifuge at 1,500×g for 10 min and the supernatant discarded. New media was make 0.4-0.5×10^6 cells/ml. Ten μl of this suspension was pipetted into the center of poly D-lysine coated culture wells and the plates incubated at 38° C. for 4 hrs and then 400 μl of fresh Neurobasal media was added. After 2 days of incubation, half of the media was exchanged for fresh media and the incubation continued for 2 more days. After day 4, the medium was changed with DMEM/F12 medium containing 5 μM insulin, 30 nM 1-thyroxine, 20 nM progestrone, 30 nM Na selenite 100 U/ml penicillin and 100 μg/ml streptomycin. […] These media were exchanged 2 days later (day 8) and the cells were fixed on day 10 and stained with anti MAP2 (Boehringer Manheim, Indianapolis, Id.) to visual neurons and vimentin and GFAP (Boehringer) to visualize glial cells.

[4] = cited from earlier work
whole brain GABA levels = experiment: Effect of increased blood D-β-hydroxybutyrate on whole brain GABA levels; format: in vivo, rat; details: 120 minutes after administration as in Example 3; t=0 level 191
Protocol: To assess the effect of D-β-hydroxybutyrate on whole brain GABA levels, and thus provide an indication of antiepileptic effect of ketone body or precursor treatment aimed at increasing blood ketone body levels, whole rat brain was frozen at set times after administration of D-β-hydroxybutyrate as described in Example 3, GBA was assayed using standard HPLC technique and related to protein content using standard protein assay.

[5] = room temperature, unesterified state; cited from earlier work
[6] = tested on: cerebral circulation and regional vasomotor reflexes; details: in vivo; cited from earlier work
[7] = cited from earlier work; remark: listed apart in the source
[8] = Oral administration of triolide in yoghurt to rats, plasma D-β-hydroxybutyrate and tolerability; format: in vivo, Wistar rats; details: over at least 3 hours
Protocol: The ability of orally administered triolide to raise blood ketone levels was investigated as follows. The day before the experiment commenced, 12 Wistar rats weighing 316±10 g were placed in separate cages. They had no access to food for 15 hours prior to presentation with triolide containing compositions, but water was provided ad libitum.
On the morning of the experiment 0.64 g of triolide was mixed with 5 g Co-op brand Black Cherry yoghurt in separate feeding bowls for […] of the rats. The memaining 3 rats were given 5 g of the yoghurt without the triolide as controls. The yoghurt containing bowls were placed in the cages and the rats timed while they ate. Two of the three control rats ate all the yoghurt and four of the six triolide yoghurt rats ate approximately half the provided amount. The remaining […] rats slept.
Control rats (n=2) were killed at 60 and 180 minutes after ingestion of yoghurt while triolide fed rats were killed at 80, 140, 150 and 155 minutes. Blood samples were taken for assay of D-β-hydroxybutyrate. […] Blood levels of (R)-3-hydroxyburyrate were measured using a […] assay of Anal. Biochem (1983) 131, p 478-482, 1.0 ml of a solution made up from 2-amino-2-methyl-1-propanol (100 mM pH 9.9, 0.094 g/10 ml), NAD^− (30 mM. 0.199 g/10 ml) and EDTA (4 mM, 0.015 g/10 ml) was added to each of a number of cuvettes and 4 μl sample or D-β-hydroxybutyrate control.

[9] = Rats fed triolide in 'Hob-Nob' biscuit, tolerability over two weeks; format: in vivo; details: two rats fed approximately 1.5 g triolide each in biscuit, after two weeks
septal cells = details: 1 μm Aβ142 for 24 hours; cited from earlier work
[10] = presence of D-β-hydroxybutyrate, whether β142 was present or not
[11] = intravenous infusion, normal human subjects and patients

CC(O)CCO (racemic) [racemic 1,3 butandiol, 1,3 butandiol]
blood D-β hydroxybutyrate concentration [1]: 0.98 mM | blood acetoacetate concentration [1]: 0.33 mM | rise of blood ketone concentration [1]: about 10 fold | liver cytosolic [NAD]/[NADH] [2]: 1000

C[C@@H](O)CC(=O)O [D-β-hydroxybutyrate, (R)-3-hydroxybutyric acid]
neuronal cell number per microisland ([3]; D-β-hydroxybutyrate added to cultures containing amyloid β142): 70 cells per microisland | neuronal cell number per microisland ([3]; Na D-β-hydroxybutyrate 8 mM, no amyloid): 70 cells per microisland | length of axons [3, 10]: increased | number of dendritic outgrowths [3, 10]: increased | pKa [4]: 4.4 | whole brain GABA levels (whole brain GABA levels): 466 pmoles/μg protein

CC(=O)CC(=O)O [acetoacetate]
half time of spontaneous decarboxylation to acetone [5]: about 30 days

CCO [ethanol]
liver cytosolic [NAD]/[NADH] [2]: around 200

CC(O)CC(=O)[O-].[Na+] (centres unmarked) [sodium hydroxybutyrate]
increase of cerebral circulation and regional vasomotor reflexes [6]: up to 40%

C[C@@H](O)CC(=O)[O-].[Na+] [sodium salts of D-β-hydroxybutyrate]
toxicity ([7]; human, in vivo, iv): non-toxic | effect on glucose, free fatty acids and glycerol concentration [7, 11]: capable of decreasing | effect on leucine oxidation [7, 11]: ineffective

C[C@@H]1CC(=O)O[C@H](C)CC(=O)O[C@H](C)CC(=O)O1 [triolide, (R,R,R)-4,8,12-trimethyl-1,5,9-trioxadodeca-2,6,10-trione]
ill effects from ingestion [8]: no ill effects | ill effects [9]: no ill effects

amyloid β142: amyloid β peptide (Sigma), toxic to hippocampal neurons
activity of choline acetyl transferase (septal cells): no decrease | decrease in acetyl choline production (septal cells): over five fold
